System: 521955-158-R2-J5-PDC complex spheroid viability
Experiment: Anticancer human tumor 521955-158-R2-J5-PDC patient-derived pancreatic carcinoma cell line growth inhibition [GQUAD]
Details: for IC50: curve of first compound; for viability, T/C: stronger effect = lower value; active = viability on the fitted dose curve at most 10% of control; inactive = the rest
Text: DNA G-quadruplex Stabilizer Agents in Combinations in Complex Spheroids
A high-throughput screen of multi-cell type tumor spheroids was designed to identify active combinations of DNA G-quadruplex stabilizer agents and targeted small molecules. Complex spheroids include a stromal component modeled by human endothelial cells (HUVEC) and fibroblasts modeled by human mesenchymal stem cells (MSCs). The concentration ranges selected for each drug and investigational agent were based upon clinically achievable concentrations if the clinical Cmax of the agent was known.
Compounds. The drugs and investigational agents: pidnarulex (CX-5461; NSC782164), APTO-253 (NSC789042), BRACO-19 (NSC847499), peposertib (NSC802822), ceralasertib (NSC780249), elimusertib (NSC800525), camonsertib (NSC841442), AZD-1390 (NSC803789), olaparib (NSC753686), talazoparib (NSC767125), ART-558 (NSC835418), sotorasib (NSC818433), MRTX-1133 (NSC836407), SN-38 (NSC673596), topotecan (NSC609699), etoposide (NSC141540), doxorubicin (NSC123127), gemcitabine (NSC613327), 5-fluorouracil (NSC19893), paclitaxel (NSC125973), vemurafenib (NSC761431), panobinostat (NSC761190), R-306465 (JNJ-16241199; NSC773264), adavosertib (NSC754352), TP-3654 (NSC805149), carboplatin (NSC241240), KSQ-4279 (NSC840948), and staurosporine (NSC755774) were obtained from the National Cancer Institute (NCI) Developmental Therapeutics Program Chemical Repository (34). The FDA-approved anticancer drug set is available from the NCI Developmental Therapeutics Program. […] The stock solutions were prepared in dimethyl sulfoxide (DMSO, Sigma-Aldrich, St. Louis, MO, cat. D2650) at 800-fold the tested concentration and stored at -70 degrees C prior to their use. All drugs and investigational agents were tested over a range starting from a high concentration at or near the clinical Cmax and decreasing in half-log increments. If the clinical Cmax for an agent had not been determined, the highest concentration tested was 10 microM.
2.3 Cell Culture. All cells were maintained in an incubator at 37 degrees C and 5% CO2 with 95% humidity. The PDC lines were cultured according to standard operating procedures established by the NCI PDMR. All PDCs were thawed and cultured in Matrigel-coated flasks prepared with a working solution of 1X Ham's F-12 nutrient mix, without supplementation (Invitrogen, cat. 11765054), 100 U/mL penicillin-streptomycin (Invitrogen, cat. 15140122), and 2.5% Matrigel (Corning Inc., cat. 354248) for the first three passages. The 857933-349-R-J2-PDC line was cultured in 6C/Colon 1B media, which includes advanced DMEM/F-12 (Thermo Fisher Scientific, cat. 12634028), 10 mM HEPES (Thermo Fisher Scientific, cat. 15630080), 1X GlutaMAX supplement (Thermo Fisher Scientific, cat. 35050061), 0.1 mg/mL primocin (InvivoGen, cat. ant-pm-2), 10% defined fetal bovine serum, heat inactivated (HyClone Laboratories Inc., cat. SH30070.03HI), 50% L-WRN conditioned media (ATCC, cat. CRL-3276), 1.25 mM N-Acetyl-L-cysteine (Sigma-Aldrich, cat. A9165), 10 mM nicotinamide (Sigma-Aldrich, cat. N0636), 1X B-27 supplement (Thermo Fisher Scientific, cat. 17504044), 1X N-2 supplement (Thermo Fisher Scientific, cat. 17502048), 10 microM Y-27632 dihydrochloride (Tocris Bioscience, cat. 1254), and 50 ng/mL human EGF recombinant protein (Thermo Fisher Scientific, cat. PHG0311). The 485176-168-R4-J1-PDC line was cultured in Panc media, which includes all 6C/Colon 1B media components plus 100 ng/mL human FGF-10 (Thermo Fisher Scientific, cat. 100-26), 500 nM SB-431542 (Selleckchem, cat. S1067), and gastrin (Tocris, cat. 3006).
[…]

[1] = second compound 0.0316 µM, first compound 0.0316 µM
[2] = second compound 0.0316 µM, first compound 0.316 µM
[3] = second compound 0.1 µM, first compound 0.0316 µM
[4] = second compound 0.1 µM, first compound 0.316 µM
[5] = second compound 0.316 µM, first compound 0.0316 µM
[6] = second compound 0.316 µM, first compound 0.316 µM
[7] = second compound 1 µM, first compound 0.0316 µM
[8] = second compound 1 µM, first compound 0.316 µM
[9] = second compound 3.16 µM, first compound 0.0316 µM
[10] = second compound 3.16 µM, first compound 0.316 µM
[11] = second compound 10 µM, first compound 0.0316 µM
[12] = second compound 10 µM, first compound 0.316 µM
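Also: spheroids exposed to agents for one week before reading.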

Cn1ncnc1[C@H]1c2n[nH]c(=O)c3cc(F)cc(c23)N[C@@H]1c1ccc(F)cc1 + CN(C)c1ccc(Nc2c3ccc(NC(=O)CCN4CCCC4)cc3nc3cc(NC(=O)CCN4CCCC4)ccc23)cc1
> 316 nM: IC50 (second compound 0.0316 µM) | IC50 (second compound 0.1 µM) | IC50 (second compound 0.316 µM) | IC50 (second compound 1 µM) | IC50 (second compound 3.16 µM) | IC50 (second compound 10 µM)
inactive: viability, T/C (second compound 0.0316 µM, first compound 0.000999 µM) 99.1% | viability, T/C (second compound 0.0316 µM, first compound 0.00316 µM) 89% | viability, T/C (second compound 0.0316 µM, first compound 0.00999 µM) 104% | viability, T/C [1] 91.1% | viability, T/C (second compound 0.0316 µM, first compound 0.0999 µM) 90.7% | viability, T/C [2] 80% | viability, T/C (second compound 0.1 µM, first compound 0.000999 µM) 92.8% | viability, T/C (second compound 0.1 µM, first compound 0.00316 µM) 98.7% | viability, T/C (second compound 0.1 µM, first compound 0.00999 µM) 90% | viability, T/C [3] 93.9% | viability, T/C (second compound 0.1 µM, first compound 0.0999 µM) 92.2% | viability, T/C [4] 81.4% | viability, T/C (second compound 0.316 µM, first compound 0.000999 µM) 97.5% | viability, T/C (second compound 0.316 µM, first compound 0.00316 µM) 95.7% | viability, T/C (second compound 0.316 µM, first compound 0.00999 µM) 93.3% | viability, T/C [5] 90.6% | viability, T/C (second compound 0.316 µM, first compound 0.0999 µM) 88.2% | viability, T/C [6] 83.7% | viability, T/C (second compound 1 µM, first compound 0.000999 µM) 99.6% | viability, T/C (second compound 1 µM, first compound 0.00316 µM) 90.2% | viability, T/C (second compound 1 µM, first compound 0.00999 µM) 92.1% | viability, T/C [7] 97% | viability, T/C (second compound 1 µM, first compound 0.0999 µM) 89.2% | viability, T/C [8] 73.7% | viability, T/C (second compound 3.16 µM, first compound 0.000999 µM) 87.4% | viability, T/C (second compound 3.16 µM, first compound 0.00316 µM) 77.9% | viability, T/C (second compound 3.16 µM, first compound 0.00999 µM) 76.4% | viability, T/C [9] 67.5% | viability, T/C (second compound 3.16 µM, first compound 0.0999 µM) 74.7% | viability, T/C [10] 66.3% | viability, T/C (second compound 10 µM, first compound 0.000999 µM) 68.1% | viability, T/C (second compound 10 µM, first compound 0.00316 µM) 70.6% | viability, T/C (second compound 10 µM, first compound 0.00999 µM) 70.7% | viability, T/C [11] 60.5% | viability, T/C (second compound 10 µM, first compound 0.0999 µM) 61.4% | viability, T/C [12] 59.4%

CC1COCCN1c1cc(C2(O)CC3CCC(C2)O3)c2cnn(-c3ccn[nH]3)c2n1 (centres undefined) + Cc1[nH]c2ccc(F)cc2c1-c1nc2c3cccnc3c3ncccc3c2[nH]1
inactive: viability, T/C [1] 32.6% | viability, T/C (second compound 0.0316 µM, first compound 0.1 µM) 10.8% | viability, T/C [2] 13.3% | viability, T/C (second compound 0.0316 µM, first compound 1 µM) 19.7% | viability, T/C (second compound 0.0316 µM, first compound 3.16 µM) 19.2% | viability, T/C (second compound 0.0316 µM, first compound 10 µM) 8.74% | viability, T/C [3] 32.5% | viability, T/C (second compound 0.1 µM, first compound 0.1 µM) 11.2% | viability, T/C [4] 12.6% | viability, T/C (second compound 0.1 µM, first compound 1 µM) 19.3% | viability, T/C (second compound 0.1 µM, first compound 3.16 µM) 20.1% | viability, T/C (second compound 0.1 µM, first compound 10 µM) 8.59% | viability, T/C [5] 28.1% | viability, T/C (second compound 0.316 µM, first compound 0.1 µM) 11.6% | viability, T/C [6] 12.2% | viability, T/C (second compound 0.316 µM, first compound 1 µM) 16.5% | viability, T/C (second compound 0.316 µM, first compound 3.16 µM) 20.5% | viability, T/C (second compound 0.316 µM, first compound 10 µM) 7.43% | viability, T/C [7] 34.3% | viability, T/C (second compound 1 µM, first compound 0.1 µM) 10.7% | viability, T/C [8] 12.4% | viability, T/C (second compound 1 µM, first compound 1 µM) 17.4% | viability, T/C (second compound 1 µM, first compound 3.16 µM) 22.9% | viability, T/C (second compound 1 µM, first compound 10 µM) 10.7% | viability, T/C [9] 38.7% | viability, T/C (second compound 3.16 µM, first compound 0.1 µM) 10.7% | viability, T/C [10] 13.9% | viability, T/C (second compound 3.16 µM, first compound 1 µM) 22.5% | viability, T/C (second compound 3.16 µM, first compound 3.16 µM) 25.4% | viability, T/C (second compound 3.16 µM, first compound 10 µM) 8.16% | viability, T/C [11] 29.5% | viability, T/C (second compound 10 µM, first compound 0.1 µM) 10.6% | viability, T/C [12] 15% | viability, T/C (second compound 10 µM, first compound 1 µM) 20.7% | viability, T/C (second compound 10 µM, first compound 3.16 µM) 26.7% | viability, T/C (second compound 10 µM, first compound 10 µM) 6.74%
< 31.6 nM: IC50 (second compound 0.0316 µM) | IC50 (second compound 0.1 µM) | IC50 (second compound 0.316 µM) | IC50 (second compound 1 µM) | IC50 (second compound 3.16 µM) | IC50 (second compound 10 µM)
